This assay addresses 11β-HSD1 (Homo sapiens, UniProt P28845). Nature of the assay: biochemical. The conditions noted are these: for pIC50: IC50 Range, Biological Test Example 1, microsomes from CHO cells overexpressing human 11β-HSD1; for inhibition at 0.1 µM: read-out: Average % inhibition at 100 nM, Biological Test Example 1, 100 nM.

pIC50: −log10 of the molar value.

Sequence of 11β-HSD1 (P28845 whole entry): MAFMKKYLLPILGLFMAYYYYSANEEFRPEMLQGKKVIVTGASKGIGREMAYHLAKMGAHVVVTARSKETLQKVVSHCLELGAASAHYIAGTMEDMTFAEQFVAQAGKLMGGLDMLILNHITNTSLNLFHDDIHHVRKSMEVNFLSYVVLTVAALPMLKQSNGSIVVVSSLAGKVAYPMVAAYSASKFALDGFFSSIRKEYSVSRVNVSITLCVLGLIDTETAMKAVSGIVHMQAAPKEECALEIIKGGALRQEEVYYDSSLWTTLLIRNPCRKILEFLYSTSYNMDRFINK

For the compound `C[C@@H](c1ccc(-c2ccc(F)cc2)cc1)N1CC[C@](CCN2CCC2)(c2ccc(F)cc2)OC1=O` [EXAMPLE 462, (R)-6-(2-(azetidin-1-yl)ethyl)-3-((S)-1-(4′-fluorobiphenyl-4-yl)ethyl)-6-(4-fluorophenyl)-1,3-oxazinan-2-one], the pIC50 was greater than 7.00 and the inhibition at 0.1 µM was 72.3%.
The corresponding values for `C[C@@H](c1ccc(-c2ccc(F)cc2)cc1)N1CC[C@](CCNCCF)(c2ccc(F)cc2)OC1=O` [EXAMPLE 463, (R)-3-((S)-1-(4′-fluorobiphenyl-4-yl)ethyl)-6-(2-(2-fluoroethylamino)ethyl)-6-(4-fluorophenyl)-1,3-oxazinan-2-one] are greater than 7.00 and 81.3%.
For `C[C@@H](c1ccc(-c2ccc(F)cc2)cc1)N1CC[C@](CCN2CCCC2)(c2ccc(F)cc2)OC1=O` [EXAMPLE 464, (R)-3-((S)-1-(4′-fluorobiphenyl-4-yl)ethyl)-6-(4-fluorophenyl)-6-(2-(pyrrolidin-1-yl)ethyl)-1,3-oxazinan-2-one], in that order: greater than 7.00 and 80.2%.
The corresponding values for `C[C@@H](c1ccc(-c2ccc(F)cc2)cc1)N1CC[C@](CCN2CC[C@H](F)C2)(c2ccc(F)cc2)OC1=O` [EXAMPLE 465, (R)-3-((S)-1-(4′-fluorobiphenyl-4-yl)ethyl)-6-(4-fluorophenyl)-6-(2-((S)-3-fluoropyrrolidin-1-yl)ethyl)-1,3-oxazinan-2-one] are greater than 7.00 and 65%.
Turning to `C[C@@H](c1ccc(-c2ccc(F)cc2)cc1)N1CC[C@](CCN2CC[C@@H](F)C2)(c2ccc(F)cc2)OC1=O` [EXAMPLE 466, (R)-3-((S)-1-(4′-fluorobiphenyl-4-yl)ethyl)-6-(4-fluorophenyl)-6-(2-((R)-3-fluoropyrrolidin-1-yl)ethyl)-1,3-oxazinan-2-one], the pIC50 is greater than 7.00 and the inhibition at 0.1 µM was 55.3%.
For `C[C@@H](c1ccc(-c2ccc(F)cc2)cc1)N1CC[C@](CCN2CCNC(=O)C2)(c2ccc(F)cc2)OC1=O` [EXAMPLE 467, (R)-3-((S)-1-(4′-fluorobiphenyl-4-yl)ethyl)-6-(4-fluorophenyl)-6-(2-(3-oxopiperazin-1-yl)ethyl)-1,3-oxazinan-2-one], in that order: greater than 7.00 and 81.2%.
The corresponding values for `C[C@@H](c1ccc(-c2ccccc2)cc1)N1CC[C@](CCO)(c2ccccc2)OC1=O` [EXAMPLE 489, (S)-3-((S)-1-(biphenyl-4-yl)ethyl)-6-(2-hydroxyethyl)-6-phenyl-1,3-oxazinan-2-one] are greater than 7.00 and 98.3%.
`C[C@@H](c1ccc(-c2ccccc2)cc1)N1CC[C@](CCCO)(c2ccccc2)OC1=O` [EXAMPLE 490, (R)-3-((S)-1-(biphenyl-4-yl)ethyl)-6-(3-hydroxypropyl)-6-phenyl-1,3-oxazinan-2-one]: the pIC50 is greater than 7.00 and the inhibition at 0.1 µM turned out to be 94.8%.
The corresponding values for `C[C@@H](c1ccc(-c2ccc(F)cc2)cc1)N1CC[C@](CCN2CCOCC2)(c2ccccc2)OC1=O` [EXAMPLE 491, (R)-3-((S)-1-(4′-fluorobiphenyl-4-yl)ethyl)-6-(2-morpholinoethyl)-6-phenyl-1,3-oxazinan-2-one] are greater than 7.00 and 99.3%.
For `C[C@@H](c1ccc(-c2ccc(F)cc2F)cc1)N1CC[C@](CCCOP(=O)(O)O)(c2ccccc2)OC1=O` [EXAMPLE 492, 3-((R)-3-((S)-1-(2′,4′-difluorobiphenyl-4-yl)ethyl)-2-oxo-6-phenyl-1,3-oxazinan-6-yl)propyl dihydrogen phosphate], in that order: greater than 7.00 and 87.7%.
For `C[C@@H](c1ccc(-c2cccc(CN)c2)cc1)N1CC[C@](CCCO)(c2ccccc2)OC1=O` [EXAMPLE 493, (R)-3-((S)-1-(3′-(aminomethyl)biphenyl-4-yl)ethyl)-6-(3-hydroxypropyl)-6-phenyl-1,3-oxazinan-2-one], in that order: greater than 7.00 and 89.1%.
For the compound `C[C@@H](c1ccc(-c2ccc(CO)cc2)cc1)N1CC[C@](CCCO)(c2ccccc2)OC1=O` [EXAMPLE 494, (R)-3-((S)-1-(4′-(hydroxymethyl)biphenyl-4-yl)ethyl)-6-(3-hydroxypropyl)-6-phenyl-1,3-oxazinan-2-one], the pIC50 was greater than 7.00 and the inhibition at 0.1 µM came out at 100%.
The corresponding values for `C[C@@H](c1ccc(-c2ccc(CN)cc2)cc1)N1CC[C@](CCCO)(c2ccccc2)OC1=O` [EXAMPLE 495, (R)-3-((S)-1-(4′-(aminomethyl)biphenyl-4-yl)ethyl)-6-(3-hydroxypropyl)-6-phenyl-1,3-oxazinan-2-one] are greater than 7.00 and 95.8%.
For `C[C@@H](c1ccc(Cl)c(F)c1)N1CC[C@](CCCO)(c2ccc(F)cc2)OC1=O` [EXAMPLE 498, (R)-3-((S)-1-(4-chloro-3-fluorophenyl)ethyl)-6-(4-fluorophenyl)-6-(3-hydroxypropyl)-1,3-oxazinan-2-one], in that order: greater than 7.00 and 97.8%.
The corresponding values for `C[C@@H](c1ccc(Br)cc1)N1CC[C@](CC2(O)CC2)(c2ccc(F)cc2)OC1=O` [EXAMPLE 500, (S)-3-((S)-1-(4-bromophenyl)ethyl)-6-(4-fluorophenyl)-6-((1-hydroxycyclopropyl)methyl)-1,3-oxazinan-2-one] are greater than 7.00 and 98.2%.
On to `C[C@@H](c1ccc(-c2ccc(F)cc2F)cc1)N1CC[C@](CCC(=O)O)(c2ccccc2)OC1=O` [EXAMPLE 503, 3-((R)-3-((S)-1-(2′,4′-difluorobiphenyl-4-yl)ethyl)-2-oxo-6-phenyl-1,3-oxazinan-6-yl)propanoic acid], for which the pIC50 is greater than 7.00 and the inhibition at 0.1 µM stood at 90.1%.
As to `C[C@@H](c1ccc(OCC(F)(F)F)cc1)N1CC[C@](CCC(N)=O)(c2ccc(F)cc2)OC1=O` [EXAMPLE 505, 3-((R)-6-(4-fluorophenyl)-2-oxo-3-((S)-1-(4-(2,2,2-trifluoroethoxy)phenyl)ethyl)-1,3-oxazinan-6-yl)propanamide], the pIC50 was greater than 7.00 and the inhibition at 0.1 µM is 96.3%.
In the case of `CC(=O)N(C)CCC[C@]1(c2ccccc2)CCN([C@@H](C)c2ccc(Br)cc2)C(=O)O1` [EXAMPLE 506, N-(3-((R)-3-((S)-1-(4-bromophenyl)ethyl)-2-oxo-6-phenyl-1,3-oxazinan-6-yl)propyl)-N-methylacetamide], the negative-log IC50 (pIC50) was greater than 7.00 and the inhibition at 0.1 µM was found to be 97.7%.
With `C[C@@H](c1ccc(Br)cc1)N1CC[C@](CCNS(C)(=O)=O)(c2ccccc2)OC1=O` [EXAMPLE 507, N-(2-((S)-3-((S)-1-(4-bromophenyl)ethyl)-2-oxo-6-phenyl-1,3-oxazinan-6-yl)ethyl)methanesulfonamide], the pIC50 was greater than 7.00 and the inhibition at 0.1 µM was determined as 96.1%.
The corresponding values for `C[C@@H](c1ccc(Br)cc1)N1CC[C@](CCN2CCCS2(=O)=O)(c2ccccc2)OC1=O` [EXAMPLE 513, (S)-3-((S)-1-(4-bromophenyl)ethyl)-6-(2-(1-dioxo-isothiazolidin-2-yl)ethyl)-6-phenyl-1,3-oxazinan-2-one] are greater than 7.00 and 84.4%.
Turning to `C[C@@H](c1ccc(Br)cc1)N1CC[C@](CCCN(C)S(C)(=O)=O)(c2ccccc2)OC1=O` [EXAMPLE 514, N-(3-((R)-3-((S)-1-(4-bromophenyl)ethyl)-2-oxo-6-phenyl-1,3-oxazinan-6-yl)propyl)-N-methylmethanesulfonamide], the pIC50 is greater than 7.00 and the inhibition at 0.1 µM stood at 93.1%.
For `CC(C#N)C[C@]1(c2ccc(F)cc2)CCN([C@@H](C)c2ccc(Br)cc2)C(=O)O1` (stereo partly drawn) [EXAMPLE 520, 3-((R)-3-((S)-1-(4-bromophenyl)ethyl)-6-(4-fluorophenyl)-2-oxo-1,3-oxazinan-6-yl)-2-methylpropanenitrile], in that order: greater than 7.00 and 98%.
For `C[C@@H](c1ccc(Br)cc1)N1CC[C@](CC(C)(C)C(N)=O)(c2ccc(F)cc2)OC1=O` [EXAMPLE 522, 3-((R)-3-((S)-1-(4-bromophenyl)ethyl)-6-(4-fluorophenyl)-2-oxo-1,3-oxazinan-6-yl)-2,2-dimethylpropanamide], in that order: greater than 7.00 and 97.5%.
The corresponding values for `C[C@@H](c1ccc(Br)cc1)N1CC[C@](CCC#N)(c2ccc(F)cc2)OC1=O` [EXAMPLE 524, 3-((R)-3-((S)-1-(4-bromophenyl)ethyl)-6-(4-fluorophenyl)-2-oxo-1,3-oxazinan-6-yl)propanenitrile] are greater than 7.00 and 97.9%.
As to `C[C@@H](c1ccc(Br)cc1)N1CC[C@](CCC(=O)O)(c2ccc(F)cc2)OC1=O` [EXAMPLE 526, 3-((R)-3-((S)-1-(4-bromophenyl)ethyl)-6-(4-fluorophenyl)-2-oxo-1,3-oxazinan-6-yl)propanoic acid], the negative logarithm of the IC50 (pIC50) was greater than 7.00 and the inhibition at 0.1 µM was 54.6%.
The corresponding values for `C[C@@H](c1ccc(Br)cc1)N1CC[C@](CC(=O)CO)(c2ccc(F)cc2)OC1=O` [EXAMPLE 527, (S)-3-((S)-1-(4-bromophenyl)ethyl)-6-(4-fluorophenyl)-6-(3-hydroxy-2-oxopropyl)-1,3-oxazinan-2-one] are greater than 7.00 and 89.7%.
The corresponding values for `C[C@@H](c1ccc(Br)cc1)N1CC[C@](CC(C)(C)CO)(c2ccc(F)cc2)OC1=O` [EXAMPLE 528, (R)-3-((S)-1-(4-bromophenyl)ethyl)-6-(4-fluorophenyl)-6-(3-hydroxy-2,2-dimethylpropyl)-1,3-oxazinan-2-one] are greater than 7.00 and 98.6%.
The corresponding values for `C[C@@H](c1ccc(Br)cc1)N1CC[C@](CCN(C)S(C)(=O)=O)(c2ccccc2)OC1=O` [EXAMPLE 529, N-(2-((S)-3-((S)-1-(4-bromophenyl)ethyl)-2-oxo-6-phenyl-1,3-oxazinan-6-yl)ethyl)-N-methylmethanesulfonamide] are greater than 7.00 and 93.7%.

By pIC50 is commonly meant the negative decadic logarithm of the IC50, by convention in mol/L. Higher therefore signals a small IC50. By inhibition is commonly meant the drop in the measured response relative to a control, in per cent.

(Values after patent US8575156B2, “Cyclic inhibitors of 11β-hydroxysteroid dehydrogenase 1” (Vitae Pharmaceuticals, Inc., priority 2007, dated 2013).)
